The test system of test [1] is Human breast cancer cell line T47D. The test can be described thus: Cell based caspase-3 activity assay: potentiation of MMS induced apoptosis. The note with it: read-out: EC50 (nM), potentiation of the apoptosis inducing activity of MMS. The procedure, abridged:
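T47D cells were exposed for 24 h to compound plus a minimally apoptotic MMS dose (medium containing 11.1 μg/ml MMS). Lysates were incubated 3 h at 37 °C with (Ac-DEVD)2-R110 caspase-3 substrate (20 μM in added buffer) and read at ex 496/em 520 nm. EC50 came from a sigmoidal fit of RFU versus log concentration.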

The test system of test [2] is SW620 human colorectal cancer cells. Kind of test: MTT based cell viability assay: potentiation of the growth inhibiting activity of MMS.
In the next test the test system is advanced breast cancer. To be noted: Phase II clinical trial; cited from earlier work.
Test [3] deals with BRCA-2 deficient CAPAN-1 human pancreatic cancer cells. Kind of test: MTT based cell viability assay: growth inhibition of BRCA-2 deficient CAPAN-1 cells. To be noted: 240 h, compound alone, 10 day assay.
For the next test, the target named is T1, PARP-1 enzyme (Homo sapiens, UniProt P09874).
T1 construct: purchased Trevigen, Inc. 4676-096-K
T1 sequence (P09874 whole entry): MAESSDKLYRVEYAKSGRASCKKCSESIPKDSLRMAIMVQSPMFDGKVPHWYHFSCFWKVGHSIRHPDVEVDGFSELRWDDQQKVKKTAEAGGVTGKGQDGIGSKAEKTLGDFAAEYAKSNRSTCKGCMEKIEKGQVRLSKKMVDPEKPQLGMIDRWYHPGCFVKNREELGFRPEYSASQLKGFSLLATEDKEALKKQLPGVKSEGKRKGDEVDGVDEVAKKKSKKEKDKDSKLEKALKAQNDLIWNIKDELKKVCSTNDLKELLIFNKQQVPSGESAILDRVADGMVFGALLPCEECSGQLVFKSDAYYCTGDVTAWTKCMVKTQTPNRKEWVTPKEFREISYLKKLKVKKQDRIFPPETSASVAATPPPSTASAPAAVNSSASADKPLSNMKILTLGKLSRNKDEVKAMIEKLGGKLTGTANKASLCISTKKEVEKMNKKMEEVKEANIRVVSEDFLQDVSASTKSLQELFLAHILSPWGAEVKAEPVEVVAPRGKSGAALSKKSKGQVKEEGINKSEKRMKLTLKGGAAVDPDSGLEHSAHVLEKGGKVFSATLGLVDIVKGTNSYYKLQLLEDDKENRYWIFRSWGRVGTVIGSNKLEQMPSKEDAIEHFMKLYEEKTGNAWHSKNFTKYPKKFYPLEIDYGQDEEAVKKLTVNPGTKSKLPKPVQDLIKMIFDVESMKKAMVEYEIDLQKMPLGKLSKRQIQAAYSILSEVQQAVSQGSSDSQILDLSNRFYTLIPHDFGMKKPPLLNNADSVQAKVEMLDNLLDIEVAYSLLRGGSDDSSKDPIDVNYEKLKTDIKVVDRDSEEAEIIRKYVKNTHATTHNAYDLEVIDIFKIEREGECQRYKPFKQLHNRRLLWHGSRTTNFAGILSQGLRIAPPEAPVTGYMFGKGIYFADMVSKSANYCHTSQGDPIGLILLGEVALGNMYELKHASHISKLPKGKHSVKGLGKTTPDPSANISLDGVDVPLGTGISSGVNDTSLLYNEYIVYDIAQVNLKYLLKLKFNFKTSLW
Kind of test: PARP-1 enzymatic activity assay (Trevigen 96-well kit 4676-096-K). It is filed as biochemical. The note with it: 0.5 unit PARP-1, histone pre-coated plate, 60 min at room temperature; read-out: IC50 (nM), inhibitory effect on PARP-1 enzymatic activity. The text has this: Measurement of the inhibitory effect of 1-(3-(4-(pyrimidin-2-yl)piperazine-1-carbonyl)benzyl)quinazoline-2,4(1H,3H)-dione and analogs on PARP-1 enzymatic activity
Briefly, PARP-1 catalyzes the NAD-dependent addition of poly(ADP-ribose) to its nuclear protein substrates such as histones. The assay kit measures the incorporation of biotynylated poly(ADP-ribose) onto histone proteins in a 96-well format.

[4] abbreviates: read-out: IC50 (nM), potentiation of the growth inhibiting activity of MMS, SW620 cells, 1.7 μg/ml MMS, 5 days (120 hours), MTT.
Setting [5] is: Homo sapiens, T47D, 24 h, T47D cells, 11.1 μg/ml MMS, 24 hours, intracellular caspase-3 activity.
Setting [6] is: Homo sapiens, SW-620, 120 h, read-out: IC50 (nM), potentiation of the growth inhibiting activity of MMS, SW620 cells, 1.7 μg/ml MMS, 5 days (120 hours), MTT.

Data on 10 compounds can be found in patent US9926304B2, “1-(arylmethyl)quinazoline-2,4(1H,3H)-diones as PARP inhibitors and the use thereof” (Impact Therapeutics, Inc., priority 2011, dated 2018).

Molecules are shown by their SMILES. Read-outs that look alike come from different tables or passages of the source.

For orientation: EC50 means the concentration that produces a half-maximal response.

With `O=C(c1cc(Cc2n[nH]c(=O)c3ccccc23)ccc1F)N1CCN(C(=O)C2CC2)CC1` [AZD2281, olaparib, reference compound], in test [1] (Homo sapiens, T47D, 24 h), the concentration for a half-maximal effect (EC50) amounted to 24 nM. Moreover, in test [2] (Homo sapiens, SW-620, 120 h, read-out: IC50 (nM), potentiation of the growth inhibiting activity of MMS), the IC50 was 28 nM. Also, in the test with advanced breast cancer, the “efficacy in treatment of advanced breast cancer” value is recorded as “effective”.

In the case of `O=C(c1cccc(Cn2c(=O)[nH]c(=O)c3ccccc32)c1)N1CCN(c2ncccn2)CC1` [Example 4, 1-(3-(4-(Pyrimidin-2-yl)piperazine-1-carbonyl)benzyl)quinazoline-2,4(1H,3H)-dione], the EC50 in test [1] (T47D cells, 11.1 μg/ml MMS, 24 hours, intracellular caspase-3 activity) worked out at 12 nM. The results for the IC50 (in test [3]; on PARP-1 enzyme; in test [2] (setting [4])) were 55 nM, 0.96 nM and 12 nM, respectively.

As for `O=C(c1ccccc1)N1CCN(C(=O)c2cccc(Cn3c(=O)[nH]c(=O)c4ccccc43)c2)CC1` [Example 8, 1-(3-(4-Benzoylpiperazine-1-carbonyl)benzyl)quinazoline-2,4(1H,3H)-dione], the EC50 in test [1] (setting [5]) came to 120 nM. In addition, the IC50 in test [3] was found to be 2360 nM; on PARP-1 enzyme, 5.3 nM; in test [2] (setting [6]), 112 nM.

On to `O=C(c1cc(Cn2c(=O)[nH]c(=O)c3ccccc32)ccc1F)N1CCN(c2ncccn2)CC1` [Example 25, 1-(4-Fluoro-3-(4-(pyrimidin-2-yl)piperazine-1-carbonyl)benzyl)quinazoline-2,4(1H,3H)-dione], for which the EC50 in test [1] (setting [5]) amounted to 3.9 nM. Also, the values for the IC50 (in test [3]; at PARP-1 enzyme; in test [2] (setting [4])) were 98 nM, 0.21 nM and 9.8 nM, respectively.

For the compound `O=C(c1cc(Cn2c(=O)[nH]c(=O)c3ccccc32)ccc1F)N1CCN(C(=O)C2CCC2)CC1` [Example 44, 1-(3-(4-(Cyclobutylcarbonyl)piperazine-1-carbonyl)-4-fluorobenzyl)quinazoline-2,4(1H,3H)-dione], the EC50 in test [1] (setting [5]) stood at 5.7 nM. Further, the figures for the IC50 (in test [3]; at PARP-1 enzyme; in test [2] (setting [6])) were 318 nM, 0.88 nM and 6.8 nM, respectively.

For `O=C(c1cccc(Cn2c(=O)[nH]c(=O)c3c(F)cccc32)c1)N1CCN(c2ncccn2)CC1` [Example 127, 5-Fluoro-1-(3-(4-(pyrimidin-2-yl)piperazine-1-carbonyl)benzyl)quinazoline-2,4(1H,3H)-dione], the EC50 in test [1] (setting [5]) came out at 4.1 nM. Further, the IC50 in test [3] came out at 44 nM; on PARP-1 enzyme it was 0.37 nM; in test [2] (setting [6]), 13 nM.

On to `O=C(c1cc(Cn2c(=O)[nH]c(=O)c3c(F)cccc32)ccc1F)N1CCN(c2ncccn2)CC1` [Example 132, 5-Fluoro-1-(4-fluoro-3-(4-(pyrimidin-2-yl)piperazine-1-carbonyl)benzyl)quinazoline-2,4(1H,3H)-dione], for which the EC50 in test [1] (setting [5]) was 0.93 nM. The IC50 in test [3] turned out to be 17 nM; at PARP-1 enzyme, 1.19 nM; in test [2] (setting [6]), 4.1 nM.

Turning to `O=C(c1cccc(Cn2c(=O)[nH]c(=O)c3cc(F)ccc32)c1)N1CCN(c2ncccn2)CC1` [Example 139, 6-Fluoro-1-(3-(4-(pyrimidin-2-yl)piperazine-1-carbonyl)benzyl)quinazoline-2,4(1H,3H)-dione], the concentration for a half-maximal effect (EC50) in test [1] (setting [5]) came to 4 nM. In addition, the IC50 was determined as 36 nM in test [3], 1.3 nM at PARP-1 enzyme and 16 nM in test [2] (setting [6]).

On to `O=C(c1cc(Cn2c(=O)[nH]c(=O)c3cc(F)ccc32)ccc1F)N1CCN(c2ncccn2)CC1` [Example 144, 6-Fluoro-1-(4-fluoro-3-(4-(pyrimidin-2-yl)piperazine-1-carbonyl)benzyl)quinazoline-2,4(1H,3H)-dione], for which the EC50 in test [1] (setting [5]) worked out at 3.4 nM. The IC50 in test [3] was determined as 78 nM; at PARP-1 enzyme, 1.15 nM; in test [2] (setting [6]), 2.8 nM.

On to `O=C(c1cc(Cn2c(=O)[nH]c(=O)c3cc(F)ccc32)ccc1F)N1CCN(C(=O)C2CCCCC2)CC1` [Example 147, 1-(3-(4-(Cyclohexylcarbonyl)piperazine-1-carbonyl)-4-fluorobenzyl)-6-fluoroquinazoline-2,4(1H,3H)-dione], for which, in test [1] (setting [5]), the EC50 amounted to 3.4 nM. For the same compound, the IC50 was found to be 47 nM in test [3], 1.2 nM at PARP-1 enzyme and 2.7 nM in test [2] (setting [6]).
